Data reported in ChEMBL document CHEMBL1201862, “PubChem BioAssay data set” (2004).
Active and inactive are the calls of the source. Rule as the data show it: actives have a measured IC50 and inactives only a lower limit.

Target: Envelope glycoprotein gp160 (Human immunodeficiency virus 1, UniProt Q6QLK5)
Assay: inhibitors of HIV fusion peptide binding, primary screen, biochemical, uHTS, fluorescence dequenching (AID 1986)

Envelope glycoprotein gp160, sequence (Q6QLK5 whole entry, the tested form may be a part): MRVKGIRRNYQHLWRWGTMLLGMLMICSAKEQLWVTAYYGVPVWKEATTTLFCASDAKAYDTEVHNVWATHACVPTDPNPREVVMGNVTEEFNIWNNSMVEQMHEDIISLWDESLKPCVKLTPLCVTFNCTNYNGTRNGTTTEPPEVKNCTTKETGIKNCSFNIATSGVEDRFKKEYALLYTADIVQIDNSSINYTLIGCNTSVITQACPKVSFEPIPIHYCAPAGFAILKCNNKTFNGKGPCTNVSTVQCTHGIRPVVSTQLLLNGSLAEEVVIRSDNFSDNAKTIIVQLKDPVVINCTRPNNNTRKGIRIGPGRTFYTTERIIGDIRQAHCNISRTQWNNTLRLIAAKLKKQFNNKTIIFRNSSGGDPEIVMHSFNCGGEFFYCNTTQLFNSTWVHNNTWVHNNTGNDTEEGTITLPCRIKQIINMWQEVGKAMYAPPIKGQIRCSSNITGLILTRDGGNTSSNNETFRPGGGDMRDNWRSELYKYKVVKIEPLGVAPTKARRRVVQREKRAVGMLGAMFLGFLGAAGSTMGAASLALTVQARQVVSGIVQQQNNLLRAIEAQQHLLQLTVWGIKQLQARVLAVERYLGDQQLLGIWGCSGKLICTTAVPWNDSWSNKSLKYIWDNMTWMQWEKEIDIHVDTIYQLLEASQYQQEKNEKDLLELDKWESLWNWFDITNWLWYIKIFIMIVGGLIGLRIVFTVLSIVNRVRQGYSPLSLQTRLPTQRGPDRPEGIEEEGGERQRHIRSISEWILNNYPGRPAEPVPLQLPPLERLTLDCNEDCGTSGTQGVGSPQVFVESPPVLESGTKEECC

**Q.** COc1ccccc1NS(=O)(=O)c1cccc(N2C(=O)/C(=C\Nc3ccccc3C(=O)O)c3ccccc3C2=O)c1 was tested. Which IC50 did it give?
**A.** 13.1 µM (active)

**Q.** For COc1cc(/C=C2\C(=N)N3N=C(S(C)(=O)=O)SC3=NC2=O)ccc1OCCOc1ccccc1C, which IC50 is on record?
**A.** 13.7 µM (active)

**Q.** For CSc1nnc(-c2ccccc2/N=C/c2c(C)nn(-c3ccc4ccccc4c3)c2O)c(O)n1, which IC50 is on record?
**A.** 25.8 µM (active)
